The values below come from ChEMBL document CHEMBL5053512, “Discovery and Preclinical Pharmacology of an Oral Bromodomain and Extra-Terminal (BET) Inhibitor Using Scaffold-Hopping and Structure-Guided Drug Design” (J Med Chem, 2021).

The data set can be described thus: Cmax in human LG0787F cells xenografted in NSG mouse at 1 mg/kg/day, po bid. Also noted: dose 1 mg/kg/day, route po. To be noted: in vivo. Type of data set: ADME, organism-based. On the technique in general: In xenograft studies the graft and the host belong to different species.

For the compound `Cc1nnn(C)c1-c1cnc2c3ccc(C(C)(C)O)cc3n([C@H](c3ccccc3)C3CCOCC3)c2c1` [EZOBRESIB], the Cmax worked out at 40 nM.

In general, Cmax refers to the highest concentration seen after dosing.
